Measurements reported in PubChem BioAssay AID1902 (Broad Institute, 2009).
The source made the active and inactive calls.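 The calls were made as follows: active = EC50 no more than a set limit of log units above the highest dose; inactive = the rest.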

Target: S. pyogenes SKKanGAS, kanamycin survival, BacTiterGlo, 6 h
Assay: S. pyogenes SKKanGAS kanamycin growth inhibitors – SKKanGAS strain, luminescence, dose confirmation, streptokinase promoter inhibitor project, dose response (AID 1902);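 also: lower survival reflects blocked streptokinase promoter driving kanamycin resistance gene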

Row | SMILES | EC50
1 | Cc1noc(C)c1CSc1nc2ccccc2nc1NS(=O)(=O)c1ccc(Cl)cc1 | 3.13 µM
2 | CCOC(=O)c1sc(Nc2nc3ccc(OC)cc3s2)cc1C | 2.95 µM
3 | C/C(=N\NC(=O)c1ccccc1O)C1C(=O)c2ccccc2C1=O | 4.69 µM
4 | Cc1nnc(SCC2=C(C(=O)O)N3C(=O)C(NC(=O)Cn4nc(C(F)F)c(Cl)c4C)C3SC2)s1 (stereo unspecified) | < 0.06 µM
5 | COc1ccc(-c2cc3nc(-c4ccccc4)cc(N4CCCC(O)C4)n3n2)cc1 (stereo unspecified) | 4.3 µM
6 | Oc1c(CN2CCN(c3ccccn3)CC2)cc(Cl)c2cccnc12 | 5.58 µM
7 | COc1cc(O)c(CC=C(C)C)c(O)c1C(=O)CCc1ccc(O)cc1 | 2.76 µM
8 | Cc1cccc(OC(=O)c2sc3ncn(C)c(=O)c3c2C)c1 | 4.09 µM
9 | COc1ccc(C2c3ccc(O)cc3Oc3ncn4nc(-c5ccncc5)nc4c32)cc1OC (stereo unspecified) | 6.28 µM
10 | Cc1cc(C)n(-c2nc(NC(C)(C)C)nc(NC(C)(C)C)n2)n1 | 0.396 µM
11 | CN(CC1CCCO1)S(=O)(=O)c1ccc(C(=O)Nc2ccccc2F)cc1 (stereo unspecified) | > 15 µM (inactive)
12 | Cc1ccc2c(c1)=C(c1sc(N(C)c3ccc(O)cc3)nc1O)C(=O)N=2 | 6.72 µM
13 | COc1ccc2c(C)nc(Nc3nc(-c4ccccc4)cc(=O)[nH]3)nc2c1 | 2.75 µM
14 | CC(=O)NC[C@H]1CN(c2ccc(N3CCOCC3)c(F)c2)C(=O)O1 | 0.158 µM
15 | C/C(=N/NC(=O)c1cccs1)c1c(C)[nH]n(-c2nc3ccccc3s2)c1=O | 3.24 µM
16 | CC(C)(C)c1ccc(CN(Cc2ccco2)Cc2nnnn2C2CCCC2)cc1 | 4.69 µM
17 | O=C(Cc1csc(Nc2nc(=S)[nH]c3ccccc23)n1)NCCCN1CCN(c2cccc(Cl)c2)CC1 | 6.12 µM
18 | CCOc1c(OC(C)=O)ccc(/C=C/c2ccc3cccc(OC(C)=O)c3n2)c1[N+](=O)[O-] | 1.6 µM
19 | Cc1ccc2nc(NNC(=O)c3ccc(S(=O)(=O)N4CCc5ccccc5C4)cc3)sc2c1 | 0.793 µM
20 | COc1ccccc1-c1nnc(NC(=O)c2ccc(S(=O)(=O)N(C)CC3CCCO3)cc2)o1 (stereo unspecified) | 8.41 µM
21 | COc1cc(/C=N/Nc2ncnc3sc4c(c23)CCC4)ccc1O | 2.11 µM
22 | CCOc1cccc(/C=N/Nc2ccc(S(=O)(=O)N(CC)CC)cn2)c1O | 2.94 µM

Row | SMILES | EC50
23 | Cc1ccc(O)c(/C=N/NC(=O)Cc2ccc(Cl)cc2)c1 | 2.78 µM
24 | CCCCCCCCCCOC(=O)Cn1c(COc2ccccc2)[n+](C)c2ccccc21 | 7.96 µM
25 | O=C(C[n+]1cnn(CC(=O)c2ccc(Cl)cc2Cl)c1)c1ccc([N+](=O)[O-])cc1 | 12.3 µM
26 | CCOC(=O)c1cnn(-c2nc3c(C)cccc3s2)c1C(F)(F)F | 12.5 µM
27 | N#C/C(=N\Nc1ccc(Cl)cc1)C(N)=S | > 15 µM (inactive)
28 | O=C(NC(=S)NNC(=O)c1cccs1)c1ccccc1 | 5.73 µM
29 | CC1(C)CC(c2nc(-c3ccc(Cl)cc3)cs2)CCS1 (stereo unspecified) | 6.7 µM
30 | CCN(CC)S(=O)(=O)c1cc(OC)ccc1N=Nc1ccc(O)c2ncccc12 | 1.92 µM
31 | COc1ccc(O)c(C(=O)CC(=O)c2ccccc2C)c1 | 4.76 µM
32 | CC(=O)OCC1=C(C(=O)O)N2C(=O)C(NC(=O)C(C)Cn3nc(C)c(Cl)c3C)C2SC1 (stereo unspecified) | 2.95 µM
33 | O=C(Nc1ccccc1Cc1ccccc1)c1ccccc1NS(=O)(=O)c1ccc(Cl)s1 | 0.59 µM
34 | COc1ccc(-c2coc3c(C)c4oc(=O)c(CCC(=O)O)c(C)c4cc23)cc1 | 2.13 µM
35 | Nc1c(Cl)cc(-c2csc(N3CCCC3c3nc4cc(Cl)c(Cl)cc4n3CCOCCO)n2)cc1Cl (stereo unspecified) | > 15 µM (inactive)
36 | COc1cccc(C(=O)Oc2ccc(/C=N/Nc3ccc(C(=O)O)cc3)cc2OC)c1 | 6.23 µM
37 | COCc1cc(=O)[nH]c(Nc2nc3ccccc3o2)n1 | 2.66 µM
38 | C=CCN1C(=O)/C(=C/c2ccc(OC(C)=O)c(OCC)c2[N+](=O)[O-])SC1=S | 1.62 µM
39 | CCCOC(=O)c1ccc(Oc2c(-c3ccc(OCC)cc3O)n[nH]c2C)cc1 | 2.02 µM
40 | Cc1ccc(Nc2nc(N)nc(CN3CCN(c4ccccc4)CC3)n2)cc1Cl | 13.2 µM
41 | CCCCCc1ccc(OCCCC[n+]2ccccc2)c(CCCCC)c1 | 7.07 µM
42 | Cc1c(N/N=C(\C#N)C(=O)c2ccc(Cl)cc2)c(=O)n(-c2ccccc2)n1C | 0.36 µM
43 | CCCCCCCCCCCC(=O)c1c(O)cccc1O | 1.58 µM
44 | O=S(=O)(Nc1nc2ccccc2nc1Cl)c1ccc2ccccc2c1 | > 5 µM (inactive)

Row | SMILES | EC50
45 | Cc1ccc(C(=O)NC(=S)NNC(=O)COc2ccccc2C)cc1 | 0.161 µM
46 | O=C(Nc1nnc(SCc2ccc(F)cc2)s1)c1ccccn1 | 0.382 µM
47 | Oc1ccc(CN2CCc3ccccc3C2)c2cccnc12 | 4.09 µM
48 | O=c1c2c(nc3c(-c4ccc(Cl)cc4)c[nH]n13)CCCC2 | 4.55 µM
49 | O=C(NNC(=O)c1ccccc1OCc1ccc(F)cc1)c1ccccc1O | 2.5 µM
50 | N/C(=N\NC(=O)c1sccc1OCc1ccc(Cl)cc1Cl)c1ccccn1 | 3.32 µM
51 | O=c1c2ccccc2[se]n1-c1ccccc1 | 1.52 µM
52 | COC(=O)C1N2C(=O)[C@@H](NC(=O)COc3ccccc3)[C@H]2SC1(C)C (stereo partly specified) | 0.377 µM
53 | O=C(O)c1ccc(-c2nc(-c3ccc(Cl)c(Cl)c3)cs2)cc1 | 3.82 µM
54 | CCOC(=O)c1cnc(-n2nc(C)cc2C)nc1Nc1ccc(OC)cc1 | 0.185 µM
55 | CCc1ccc(-c2cc(C(=O)N/N=C/c3c[nH]c4ccccc34)[nH]n2)cc1 | 5.96 µM
56 | Cc1ccccc1/C=N/Nc1nc2ccccc2[nH]1 | 5.3 µM
57 | COc1ccc(NC(=O)CN(C)C(=O)/C=C/c2cn(-c3ccccc3)nc2-c2ccc(F)cc2)cc1 | 8.39 µM
58 | Cc1ccc(/C=C2/Sc3ccc(C(=O)N4CCC5(CC4)OCCO5)cc3NC2=O)cc1 | 5.88 µM
59 | CCOC(=O)c1sc2nc(Cc3ccc(Cl)cc3)[nH]c(=S)c2c1C | 3.21 µM
60 | Oc1[nH]c2ccc(Br)cc2c1N=NC(=S)Nc1ccc(F)cc1 | 0.115 µM
61 | COc1ccccc1OCCCn1c(C)c(C#N)c2ccccc21 | 7.08 µM
62 | CCn1c(NC(=O)c2cccc(Cn3cc(Cl)cn3)c2)nc2ccccc21 | 1.02 µM
63 | COc1cc(C(=O)NNC(=S)NC(=O)c2ccc3c(c2)OCO3)cc(OC)c1OC | 1.63 µM
64 | Cc1ccc(CNC(=S)NC2CCC(C(C)(C)C)CC2)cc1 (stereo unspecified) | 3.4 µM
65 | Cc1onc(-c2c(F)cccc2Cl)c1C(=O)NCc1ccc2c(c1)OCO2 | > 15 µM (inactive)
66 | O=c1cc(-c2ccc([N+](=O)[O-])cc2)nc2cc(-c3ccc(F)cc3)[nH]n12 | 3.48 µM

Row | SMILES | EC50
67 | Cc1ccc(F)c(NC(=O)/C(C#N)=C(\O)c2ccc(C(C)(C)C)cc2)c1 | 6.33 µM
68 | Cn1c(Sc2ccccc2Cl)c(C=O)c2ccccc21 | 5.92 µM
69 | O=C(CSc1ccc(-c2ccc(Cl)cc2)nn1)NC1CCCC1 | > 15 µM (inactive)
70 | COc1cccc(-c2cc(C(F)(F)F)nc(N3CCC(C)CC3)n2)c1 | 7.06 µM
71 | CCSc1cc(N2CCCC2)nc(-c2ccccc2)n1 | > 15 µM (inactive)
72 | COc1ccc(OC)c(NC(=O)NCc2cccnc2)c1 | > 15 µM (inactive)
73 | COc1ccc(S(=O)(=O)N2CCN=C2SCc2cccc(C)c2)cc1 | > 15 µM (inactive)
74 | CC(C)OC(=O)c1c2nc3ccccc3nc2n2c1[nH]c(=O)c1ccccc12 | 0.91 µM
75 | Cc1cccc(N2CCN(C(=O)C34CC5CC(CC(C5)C3)C4)CC2)c1C | 5.65 µM
76 | O=C(c1cc(-c2ccc(Br)cc2)nc2ccccc12)N1CCN(c2ccccc2O)CC1 | 6.44 µM
77 | Oc1c(Cl)cc(Cl)c(Cl)c1Cc1c(O)c(Cl)cc(Cl)c1Cl | 0.202 µM
78 | CNC[C@H](Cc1ccccc1)NC[C@@H](Cc1cccc2ccccc12)NCCc1ccc(C)cc1 | 4.28 µM
79 | Cc1cc(C)c(-c2cc(NC(=O)COC(=O)c3ccc(CO)cc3)n(-c3ccccc3)n2)cc1C | 8.32 µM
80 | COc1cc(NS(=O)(=O)c2ccc3ccccc3c2)c2ncccc2c1 | 1.08 µM
81 | Cc1ccccc1OCCCCc1c(C)n[nH]c1C | 7.37 µM
82 | Cc1ccc(N/N=C2\CS(=O)(=O)N(C)c3ccsc32)cc1 | 1.49 µM
83 | COc1ccc(C(=O)NNC(=S)NC(=O)/C=C/c2cccs2)cc1 | 0.598 µM
84 | Cn1cc(C(=O)c2ccc(Cl)cc2Cl)cc1C(=O)N/N=C(\N)COc1ccc(Cl)cc1Cl | 1.72 µM
85 | Fc1ccc(CO/N=C/C2=C(Cl)c3ccccc3CC2)cc1 | 3.96 µM
86 | Cc1ccc(C(=O)N/N=C/c2ccc([N+](=O)[O-])s2)cc1 | 14 µM
87 | COc1ccc(OC)c(/C=C/c2ccc3cccc(O)c3n2)c1 | 0.197 µM
88 | C=CCn1c(SCC(=O)/C(C#N)=C(\C)N)nc2sc(C)c(C)c2c1=O | 5.25 µM

Row | SMILES | EC50
89 | CCN1CCN(Cc2ccc(NC(=O)c3ccc(C)c(/C=C/c4cnc(Nc5cc(N6CCNCC6)nc(C)n5)cn4)c3)cc2C(F)(F)F)CC1 | 8.41 µM
90 | C[C@@H]1CC[C@@]2(OC1)O[C@H]1C[C@H]3[C@@H]4CC=C5C[C@@H](O)[C@H](O)C[C@]5(C)C4CC[C@]3(C)[C@H]1[C@@H]2C (stereo partly specified) | 4.12 µM
91 | CC(C)[C@H](NC(=O)N1CC(=O)Nc2ccccc21)C(=O)N[C@@H](Cc1ccccc1)C(=O)O | > 15 µM (inactive)
92 | CSc1nc(Oc2ccc3ccccc3c2)c2sccc2n1 | 7.58 µM
93 | CC(C)C[C@H](NC(=O)c1[nH]cnc1C(=O)N[C@@H](Cc1ccccc1)C(=O)OC(C)(C)C)C(=O)OC(C)(C)C | 2.1 µM
94 | CC(C)N1CCc2c(sc(NC(=O)c3ccc([N+](=O)[O-])o3)c2C(N)=O)C1 | 3.5 µM
95 | CC(C)C1O/C(=N/C(=O)Nc2ccc(Cl)c(Cl)c2)NC1=O (stereo unspecified) | 2.53 µM
96 | CCCOc1ccc(C(=O)NNC(=S)NC(=O)c2cc(-c3ccc(Cl)cc3)nc3ccccc23)cc1 | < 0.06 µM
97 | COc1ccc(NC(=O)CN(C)C(=O)/C=C/c2cn(-c3ccccc3)nc2-c2ccc(C)cc2)cc1 | 8.68 µM
98 | Fc1ccc(-c2cc(C(F)(F)F)nc(N3CCCCC3)n2)cc1 | 4.68 µM
99 | CCc1ccc(C2C(C#N)=C(N)C(C#N)(C#N)C3=CCC(C(C)(C)C)CC32)cc1 (stereo unspecified) | 5.18 µM
100 | COc1ccccc1OCC(=O)Nc1c2c(nn1-c1ccc(F)cc1)CS(=O)(=O)C2 | > 15 µM (inactive)
101 | CCn1cc(CN2CCC(n3nccc3NC(=O)Cc3ccccc3)CC2)cn1 | > 15 µM (inactive)
102 | Nc1nonc1-c1nc2ccccc2n1CC(=O)N/N=C\c1ccc(-c2ccc(Cl)cc2)o1 | 1.07 µM
103 | COC(=O)c1c(NC(=O)COc2ccc(Cl)cc2)sc2c1CC(C)(C)NC2(C)C | 12.5 µM
104 | Cc1ccc(SCC(=O)N2c3ccccc3Sc3ccccc32)cc1 | 3.78 µM
105 | O=C(N/N=C(\c1ccccc1)c1cccnc1)c1cccc(F)c1 | 3.49 µM
106 | FC(F)(F)c1cccc(NC(=S)NNC(=S)Nc2ccc(Cl)cc2)c1 | 4.81 µM
